Data as given in the COVID Moonshot data (paper PMC11187573), “Identification of SARS-CoV-2 Mpro inhibitors through deep reinforcement learning for de novo drug design and computational chemistry approaches” (RSC Medicinal Chemistry, 2024).

Experiments:
[1] = target: SARS-CoV-2 Main Protease (SARS-CoV-2) (UniProt P0DTD1)
[2] = target: SARS-CoV-2 Main Protease (SARS-CoV-2) (UniProt P0DTD1); remark: listed apart in the source

Structure (SMILES) | inhibition ([1]; 20.0 µM) [%] | inhibition ([1]; 50.0 µM) [%] | inhibition ([2]; 50.0 µM) [%] | relative solubility at 20 uM | relative solubility at 100 uM | inhibition ([2]; 20.0 µM) [%] | IC50 [2] [µM]
CCn1c(=O)n(CC(=O)Nc2c(C)ccnc2C)c2ccccc21 | -1.64 | -2.86 | 0 | 1 | 1 | – | –
Cc1ccc(C)c(NC(=O)[C@H]2CNC(=O)C2)c1 (stereo in doubt) | -14.9 | -9.38 | 0 | 0.98 | 0.98 | – | –
Cc1ccncc1NC(=O)CN(C)S(=O)(=O)c1cccc2cccnc12 | 43.4 | 17.3 | -0.449 | 0.99 | 1 | 0 | –
C=CC(=O)N(c1ccc(C(F)(F)F)cc1)C(C(=O)Nc1ccc(OC)cc1C)c1cccnc1 (configuration not stated) | 7.06 | 25.4 | – | 0.95 | 0.62 | 11 | –
CC(c1cccc(NC(=O)Cc2cnccc2Cl)c1)N1CCOCC1 (configuration not stated) | 2.12 | 3.92 | 3.87 | 0.97 | 0.92 | 0 | –
N#Cc1cccc(NC(=O)Nc2cncc(N)c2)c1 | – | 57.2 | 48.4 | 1 | 1 | 9.09 | –
O=C1C(=O)N(Cc2ccc(Br)cc2)c2ccccc21 | -3.27 | 0.439 | 100 | 1.01 | 0.9 | – | 0.747
CCC(=O)O[C@@H](OP(=O)(CCCCc1ccccc1)CC(=O)N1C[C@H](C2CCCCC2)C[C@H]1C(=O)O)C(C)C (stereo in doubt) | 4.91 | -0.253 | – | 1 | 0.92 | 3.17 | –
Cc1noc(CC(NC(=O)C(C)Cn2ccnc2)c2ccccc2)n1 (configuration not stated) | – | -2.38 | 0 | 1 | 1 | 0 | –
C=CC(=O)N(c1ccc(C2(C)CC2)cc1)C(C(=O)Nc1cccc(F)c1C)c1cccnc1 (configuration not stated) | – | 34.7 | 1.04 | 1 | 1 | 0 | –
O=C(CC(=O)N1CCOCC1)NC1CCCCC1 | 19.8 | 6.01 | 0 | 0.99 | 1 | 0 | –
C=CC(=O)N(c1ccc(C(C)OC)cc1)C(C(=O)Nc1ccc(OC)cc1C)c1cccnc1 (configuration not stated) | 2.91 | 6.9 | – | 0.99 | 0.97 | 0 | –
C=CC(=O)N1CCN(S(=O)(=O)c2ccccc2-c2ccc(Nc3ccc(C#N)cn3)cc2)CC1 | -11.3 | -6.3 | 0 | 0.75 | 0.61 | – | –
O=S(=O)(NCCc1ccccc1)c1ccoc1 | – | -24.5 | 16.5 | 1 | 1 | 0 | –
C=CC(=O)N(c1ccc(C(C)(C)C)cc1)C(C(=O)NC(C)(C)C)c1cnc[nH]1 (configuration not stated) | -20.2 | -23.6 | 0 | 0.99 | 0.89 | 0 | –
O=C(CNc1c(-c2ccccc2)nc2ccccn12)N/N=C/c1cccc2ccccc12 | 13.8 | 17.8 | 7.53 | 0.5 | 0.5 | – | –
C#CCN1CCN(C(=O)CCl)CC1 | – | 27.2 | 7.12 | 1 | 1 | 6.86 | –
O=C(Nc1nc2ccc(F)cn2n1)C1CCOc2ccc(Cl)cc21 (configuration not stated) | -28.5 | 7.58 | 0 | 1 | 0.99 | – | –
O=C1N(Cc2cccc(Cl)c2)CCN1c1nccc2n[nH]cc12 | 72.1 | 84.1 | 88.8 | 0.92 | 0.93 | – | 2.91
C=CC(=O)N(c1ccc(C2(C)CC2)cc1)C(C(=O)Nc1c(C)cccc1CC)c1cccnc1 (configuration not stated) | – | 20.9 | 20.4 | 0.8 | 0.68 | 0 | –
C=CC(=O)N(c1ccc(SC)cc1)C(C(=O)NC(C)(C)C)c1cccnc1 (configuration not stated) | 3.54 | 7.75 | – | 1 | 0.99 | 0 | –
C=CC(=O)N(c1ccc2ncsc2c1)C(C(=O)Nc1ccc(Br)cc1)c1cccnc1 (configuration not stated) | 17.4 | 34.9 | – | 0.75 | 0.64 | 3.05 | –
Cc1noc(C)c1COc1ccccc1C(=O)NC(C)c1nnc2ncccn12 (configuration not stated) | 2.22 | 8.28 | 18.5 | 0.99 | 0.94 | 0 | –
O=C(Cc1cccc(Cl)c1)Nc1cnccn1 | 3.71 | 13.3 | 0 | 1.01 | 1 | – | –
C=CC(=O)N(c1cc(C(C)(C)C)n[nH]1)C(C(=O)Nc1ccc(Cl)cc1)c1cccnc1 (configuration not stated) | 6.12 | 19.5 | – | 0.78 | 0.68 | 0 | –

Structure (SMILES) | inhibition ([1]; 20.0 µM) [%] | inhibition ([1]; 50.0 µM) [%] | inhibition ([2]; 50.0 µM) [%] | relative solubility at 20 uM | relative solubility at 100 uM | inhibition ([2]; 20.0 µM) [%] | IC50 [2] [µM]
CCSCC1CCN(c2ccc(S(N)(=O)=O)cc2)CC1 | – | -25.8 | 40.2 | 1 | 1.01 | 26 | –
Cc1ccncc1NC(=O)CC1CCCNC1 (configuration not stated) | -1.91 | 16.7 | 0 | 1 | 1 | – | –
C=CC(=O)N(c1ccc(S(F)(F)(F)(F)F)cc1)C(C(=O)Nc1ccc(OC)cc1C)c1cccnc1 (configuration not stated) | 5.52 | 12.2 | – | 0.92 | 0.75 | 0 | –
O=C1[C@H](Nc2nccn3cnnc23)CCN1c1cccc(Cl)c1 (stereo in doubt) | 3.55 | 5.29 | 0 | 1 | 0.98 | – | –
C=CC(=O)N(c1ccc(C(C)(C)C)cc1)C(C(=O)NC(C)(C)C)c1cccnc1C (configuration not stated) | -1.34 | 2.24 | 0 | 0.99 | 0.99 | 0 | –
O=C(c1cc(=O)[nH]c2ccc(F)cc12)N1CCN(S(=O)(=O)c2ccccc2)CC1 | 3.84 | 11.9 | 16.2 | 0.98 | 0.98 | – | –
O=C(NCC1COc2ccccc2O1)c1cc(=O)[nH]c2ccc(F)cc12 (configuration not stated) | 3.84 | 18.6 | 16.4 | 1 | 0.79 | – | –
CS(=O)(=O)N(CCc1ccccc1)CC1CCN(C(=O)CCl)CC1 | 23.9 | 26.1 | 73.3 | 0.96 | 0.89 | – | –
Cc1ccncc1NC(=O)[C@@H]1C[C@H]1CF (stereo in doubt) | 4.1 | 3.57 | 3.35 | 1 | 1 | – | –
Cc1ccnc2[nH]c(CC3CCN(C(=O)CCl)CC3)nc12 | 5.18 | 18.1 | 100 | 1 | 1 | – | 29.7
O=S(=O)(Cc1ccccc1)Nc1cnccc1N1CCCC1 | 1.48 | 1.38 | 0 | 0.99 | 0.98 | – | –
Cc1cc(NC(=O)Cn2cncc2C)cc(C)c1Cl | 2.9 | 4.88 | 25.8 | 1 | 0.99 | – | –
C=CC(=O)N(c1ccc(C(C)(C)CC)cc1)C(C(=O)Nc1cccc(F)c1C)c1cccnc1 (configuration not stated) | 16.3 | 31.8 | – | 0.86 | 0.72 | 3.79 | –
C=CC(=O)N(C1COC2(CCC2)C1)C(C(=O)NC(C)(C)C)c1cccnc1 (configuration not stated) | 12.6 | 13.4 | – | 0.97 | 0.96 | 0 | –
Sc1nc2ccccc2c2nc(CCc3ccccc3)nn12 | -0.837 | -6.97 | 0 | 0.93 | 0.89 | – | –
C=CC(=O)NCC(=O)N(CCN1CCOCC1)Cc1ccccc1Cl | -18.3 | -19.7 | 0 | 1 | 1 | 0 | –
Cc1ccncc1NC(=O)Cc1ccccc1 | 8.19 | 19.5 | 16.1 | 1 | 1 | -0.63 | –
Cn1cnnc1CNC(=O)Nc1cc(C(F)(F)F)c[nH]c1=O | 7.84 | 14.8 | 3.33 | 1 | 1 | – | –
N#Cc1cccc(NC(=O)Nc2cccnc2)c1 | 6.21 | 10.3 | – | 1 | 1 | 0 | –
CCCSCC(=O)C(C#N)C(=O)Nc1ccc(F)cc1F (configuration not stated) | – | 21.8 | 3.54 | 1.01 | 1.01 | 3.06 | –
O=C(Cc1ccc2[nH]c(=O)[nH]c2c1)NC1(CNC(=O)c2cnc[nH]2)CC1 | 6.85 | 3.02 | 76.6 | 1 | 1 | – | 27.3
CC(C)N(C)CC1CCN(c2ccc(S(N)(=O)=O)cc2)CC1 | – | -17.8 | 0 | 1 | 0.99 | 0 | –
Cc1ccccc1C(C(=O)NCC(O)Cn1ccnn1)c1ccccc1 (configuration not stated) | 0.424 | 4.24 | – | 1 | 1.01 | 0 | –
O=C1C(=O)N(Cc2ccc(Br)cc2)c2c(Br)cccc21 | 1.5 | -1.15 | 100 | 0.99 | 0.97 | – | 0.485
C=CC(=O)N(c1ccc(C(C)C)nc1)C(C(=O)Nc1ccc(OC)cc1C)c1cccnc1 (configuration not stated) | 6.56 | 10.4 | – | 0.98 | 0.93 | 0 | –

Structure (SMILES) | inhibition ([1]; 20.0 µM) [%] | inhibition ([1]; 50.0 µM) [%] | inhibition ([2]; 50.0 µM) [%] | relative solubility at 20 uM | relative solubility at 100 uM | inhibition ([2]; 20.0 µM) [%] | IC50 [2] [µM]
Cc1cc(C)cc(CS(=O)(=O)N[C@@]23COC[C@@H]2C3)c1 (stereo in doubt) | 6.03 | -9.38 | 0 | 1 | 1 | – | –
CN(C)C/C=C/C(=O)Nc1c[nH]c2ccccc12 | 5.8 | 22.5 | – | 1 | 1 | 0 | –
O=C(CC(=O)Nc1ccncc1)Nc1ccccc1 | – | 12 | 0 | 1 | 1 | 0 | –
COC(=O)c1sc(NS(=O)(=O)c2ccc(CF)cc2)nc1C(C)(C)C | – | -7.77 | 0 | 1 | 0.99 | 0 | –
O=C(NCCNc1cccnn1)c1ccccc1NS(=O)(=O)c1cc(F)ccc1F | – | 7.83 | 12.1 | 1 | 1 | 0 | –
COc1ccc2c(c1)CN(C(=O)CCl)C(c1ccccc1)C2 (configuration not stated) | 97.4 | 97.5 | 100 | 0.98 | 0.96 | – | 1.78
C=CC(=O)N(c1ccc(C(C)(C)C)cc1)C(C(=O)NC(C)(C)C)c1cncc(OC)c1C (configuration not stated) | 8.6 | 28.6 | 39 | 0.99 | 0.95 | 8.1 | –
O=C(Nc1ccccc1)c1cc(Cl)ccc1O | 3.75 | 8.41 | – | 1 | 0.89 | 0 | –
Cc1nnn(NC(=O)Cc2cccc(Cl)c2)c1C | 39.6 | 70.4 | 28.7 | 1 | 1.01 | – | 73.4
C=CC(=O)N(c1ccc(N2CCC2)cc1)C(C(=O)NC(C)(C)C)c1cccnc1 (configuration not stated) | -18.5 | -17.3 | – | 0.97 | 0.93 | 0 | –
C=CC(=O)N(c1cc(C)cc(N)c1)C(C(=O)NC(C)(C)C)c1cccnc1 (configuration not stated) | -15.1 | -19.4 | 0 | 0.99 | 0.98 | 0 | –
C=CC(=O)N(c1ccc(C2(C)CC2)cc1)C(C(=O)Nc1cccc(CC)c1)c1cccnc1 (configuration not stated) | – | 21 | 47.2 | 0.86 | 0.65 | 4.53 | –
Cc1ccncc1NC(=O)C1C2CCOCC21 (configuration not stated) | -18.9 | -10.8 | 0 | 1 | 1 | – | –
COc1ccccc1OCCNC(=O)c1cc(=O)[nH]c2ccc(Cl)cc12 | -2.31 | 34.1 | 23 | 0.93 | 0.66 | – | –
O=C1CC(c2cccc(NC(=O)Cc3cncnc3)c2)CN1 (configuration not stated) | 3.83 | 10.8 | 0 | 1 | 1 | – | –
CCOCC1CCN(c2ccc(S(N)(=O)=O)cc2)CC1 | – | 7.41 | 44.6 | 1 | 1 | 21.8 | –
O=C(NCc1cnccn1)c1sc2cccc(F)c2c1COc1ccccc1 | -1.73 | 6.32 | -0.855 | 0.95 | 0.44 | 0 | –
COc1ccccc1OCCN(C)C(=O)c1cc(=O)[nH]c2ccc(Cl)cc12 | 0.453 | 4.43 | 0 | 1 | 0.99 | – | –
O=C(NCc1noc2ccccc12)c1ccccc1OCC1CC1 | 5.31 | 11.7 | 0 | 1 | 0.64 | 0 | –
C=CC(=O)Nc1cccc(OC2CC(=O)N2)c1 (configuration not stated) | 5.39 | 2.19 | 2.88 | 1 | 1 | – | –
C=CC(=O)N(c1cc(C(C)(C)C)on1)C(C(=O)Nc1ccc(OC)cc1C)c1cccnc1 (configuration not stated) | 12.9 | 23.4 | – | 1 | 0.91 | 14.3 | –
Cc1ccc(C)c(N(C)C(=O)Cc2cnn(C)c2C)c1 | 7.75 | 11.4 | 0 | 0.97 | 0.98 | – | –
C=CC(=O)N(c1ccc2ncsc2c1)C(C(=O)Nc1cccc(CC)c1)c1cccnc1 (configuration not stated) | 33.9 | 59.3 | – | 0.8 | 0.63 | 16.6 | 32
Cn1cnnc1NC(=O)Cc1cccc(Cl)c1 | 5.99 | -26 | -10.5 | 1.01 | 1 | – | –
O=C(CCl)N1CCN(Cc2cc(O)ccc2O)CC1 | 57.4 | 74.5 | 89.9 | 0.99 | 0.99 | 63.9 | 9.28
